According to PubChem BioAssay (NCI):
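Exposure lasted 48 hours, with cells grown in 96-well plates and compounds tested at five concentrations. TGI: total growth inhibition.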

Key:
Assay in all cases: growth of human tumour cells (NCI), 48 h
786-0 renal = tested on: 786-0 renal
A498 renal = tested on: A498 renal
A549 NSCLC = tested on: A549 NSCLC
ACHN renal = tested on: ACHN renal
BT-549 breast = tested on: BT-549 breast
CAKI-1 renal = tested on: CAKI-1 renal
CCRF-CEM leukemia = tested on: CCRF-CEM leukemia
COLO 205 colon = tested on: COLO 205 colon
DU-145 prostate = tested on: DU-145 prostate
EKVX NSCLC = tested on: EKVX NSCLC
HCC-2998 colon = tested on: HCC-2998 colon
HCT-116 colon = tested on: HCT-116 colon
HCT-15 colon = tested on: HCT-15 colon
HL-60(TB) leukemia = tested on: HL-60(TB) leukemia
HOP-62 NSCLC = tested on: HOP-62 NSCLC
HOP-92 NSCLC = tested on: HOP-92 NSCLC
HS 578T breast = tested on: HS 578T breast
HT29 colon = tested on: HT29 colon
IGROV1 ovarian = tested on: IGROV1 ovarian
K-562 leukemia = tested on: K-562 leukemia
KM12 colon = tested on: KM12 colon
LOX IMVI melanoma = tested on: LOX IMVI melanoma
M14 melanoma = tested on: M14 melanoma
MALME-3M melanoma = tested on: MALME-3M melanoma
MCF7 breast = tested on: MCF7 breast
MDA-MB-231 breast = tested on: MDA-MB-231 breast
MDA-MB-435 = tested on: MDA-MB-435
MOLT-4 leukemia = tested on: MOLT-4 leukemia
NCI-H226 lung = tested on: NCI-H226 lung
NCI-H23 lung = tested on: NCI-H23 lung
NCI-H460 lung = tested on: NCI-H460 lung
NCI-H522 lung = tested on: NCI-H522 lung
NCI/ADR-RES ovarian = tested on: NCI/ADR-RES ovarian
OVCAR-3 ovarian = tested on: OVCAR-3 ovarian
OVCAR-4 ovarian = tested on: OVCAR-4 ovarian
OVCAR-5 ovarian = tested on: OVCAR-5 ovarian
OVCAR-8 ovarian = tested on: OVCAR-8 ovarian
PC-3 prostate = tested on: PC-3 prostate
RPMI-8226 leukemia = tested on: RPMI-8226 leukemia
RXF 393 renal = tested on: RXF 393 renal
SF-268 CNS = tested on: SF-268 CNS
SF-295 CNS = tested on: SF-295 CNS
SF-539 CNS = tested on: SF-539 CNS
SK-MEL-2 melanoma = tested on: SK-MEL-2 melanoma
SK-MEL-28 melanoma = tested on: SK-MEL-28 melanoma
SK-MEL-5 melanoma = tested on: SK-MEL-5 melanoma
SK-OV-3 ovarian = tested on: SK-OV-3 ovarian
SN12C renal = tested on: SN12C renal
SNB-19 CNS = tested on: SNB-19 CNS
SNB-75 CNS = tested on: SNB-75 CNS
SR leukemia = tested on: SR leukemia
SW-620 colon = tested on: SW-620 colon
T-47D breast = tested on: T-47D breast
TK-10 renal = tested on: TK-10 renal
U251 CNS = tested on: U251 CNS
UACC-257 melanoma = tested on: UACC-257 melanoma
UACC-62 melanoma = tested on: UACC-62 melanoma
UO-31 renal = tested on: UO-31 renal

Which results are given for `O=C(/C(=C\I)c1ccccc1)c1ccccc1`?
TGI (786-0 renal): 14.6 µM; TGI (A498 renal): 30.3 µM; TGI (A549 NSCLC): 49.2 µM; TGI (ACHN renal): 25.7 µM; TGI (BT-549 breast): 30.3 µM; TGI (CAKI-1 renal): 3.07 µM; TGI (CCRF-CEM leukemia): 54 µM; TGI (COLO 205 colon): 11.9 µM; TGI (DU-145 prostate): 19.2 µM; TGI (EKVX NSCLC): 32.3 µM; TGI (HCC-2998 colon): 16.1 µM; TGI (HCT-116 colon): 26.2 µM; TGI (HCT-15 colon): 9.37 µM; TGI (HL-60(TB) leukemia): 2.57 µM; TGI (HOP-62 NSCLC): 13.7 µM; TGI (HOP-92 NSCLC): 28.2 µM; TGI (HS 578T breast): 19.1 µM; TGI (HT29 colon): 4.95 µM; TGI (IGROV1 ovarian): 26.3 µM; TGI (K-562 leukemia): 26.7 µM; TGI (KM12 colon): 8.09 µM; TGI (LOX IMVI melanoma): 29.9 µM; TGI (M14 melanoma): 30.5 µM; TGI (MALME-3M melanoma): 21.2 µM; TGI (MCF7 breast): 4.22 µM; TGI (MDA-MB-231 breast): 17.4 µM; TGI (MDA-MB-435): 26.5 µM; TGI (MOLT-4 leukemia): 86.5 µM; TGI (NCI-H226 lung): 53.5 µM; TGI (NCI-H23 lung): 25.9 µM; TGI (NCI-H460 lung): 27.3 µM; TGI (NCI-H522 lung): 22.5 µM; TGI (NCI/ADR-RES ovarian): 44.1 µM; TGI (OVCAR-3 ovarian): 5.71 µM; TGI (OVCAR-4 ovarian): 17.7 µM; TGI (OVCAR-5 ovarian): 33.1 µM; TGI (OVCAR-8 ovarian): 14.6 µM; TGI (PC-3 prostate): 7.38 µM; TGI (RPMI-8226 leukemia): > 21.2 µM; TGI (RXF 393 renal): 11.7 µM; TGI (SF-268 CNS): > 46.2 µM; TGI (SF-295 CNS): 32.9 µM; TGI (SF-539 CNS): 35.1 µM; TGI (SK-MEL-2 melanoma): 21.4 µM; TGI (SK-MEL-28 melanoma): 5.88 µM; TGI (SK-MEL-5 melanoma): 31.3 µM; TGI (SK-OV-3 ovarian): 32.3 µM; TGI (SN12C renal): 34.9 µM; TGI (SNB-19 CNS): 23.1 µM; TGI (SNB-75 CNS): > 39.5 µM; TGI (SR leukemia): 41 µM; TGI (SW-620 colon): 9.93 µM; TGI (T-47D breast): 6.02 µM; TGI (TK-10 renal): 29.8 µM; TGI (U251 CNS): 9.69 µM; TGI (UACC-257 melanoma): 15.8 µM; TGI (UACC-62 melanoma): 12 µM; TGI (UO-31 renal): 20.2 µM
